Reference: patent publication EP4729518A1, “CRYSTAL FORM OF METHIONINE ADENOSYLTRANSFERASE 2A HETEROCYCLIC INHIBITOR, PREPARATION METHOD THEREFOR, AND USE THEREOF” (Nanjing Chia Tai Tianqing Pharmaceutical Co., Ltd., priority 2023, dated 2024)
In brackets after ≈: the same amount, converted by molar mass. Where two headings read alike, the source gives them in different places.

Columns and labels:
Assay type in all cases: physicochemical
[1] = Heating experiment via DSC followed by XRD; conditions: Heating temperature 110 °C
Source text: The heated samples were then collected and subjected to XRD analysis. Table 27: Summary of heating test results for various crystal forms

[2] = Room-temperature solubility in solvents; conditions: thermodynamic from solid, read-out: Solubility S
Experimental: Determination of the solubility of the crystal form G was conducted in 20 selected solvents at room temperature. A sample (about 2 mg) was weighed and added to a 3-mL vial, and the corresponding solvent listed in Table 29 below was added (100 µL each time) until the solid was dissolved. If the solid was still not completely dissolved after 2 mL of the solvent was added, further addition was stopped. The solubility range in the corresponding solvent was calculated according to the mass of the sample and the volume of the solvent. Table 29: Solubility ranges of crystal form G at room temperature

[3] = Dynamic solubility in buffers and water (HPLC, XRD of remaining solid); conditions: 37 °C; for solubility at 1 h / solubility at 4 h / solubility at 24 h: thermodynamic from solid, feed concentration 10 mg/mL
Experimental: 2.1. Hydrochloric acid solution at pH 1.0: A specified amount (9.00 mL) of hydrochloric acid was taken, diluted to 1000 mL with water, and shaken well to give the desired solution.
0.2 mol/L potassium dihydrogen phosphate solution: 27.22 g of potassium dihydrogen phosphate was taken, and dissolved and diluted to 1000 mL with water.
0.2 mol/L sodium hydroxide solution: 8.00 g of sodium hydroxide was taken, and dissolved and diluted to 1000 mL with water.
250 mL of a 0.2 mol/L potassium dihydrogen phosphate solution was taken and mixed with the specified amount of a 0.2 mol/L sodium hydroxide solution indicated in the table below. Then, the mixture was diluted to 1000 mL with water and shaken well to give the desired solution. Table 23: Phosphate buffer
Determination of the 1-, 4-, and 24-hour solubilities of the sample in four solvent systems (pH 1.0 buffer, pH 4.5 buffer, pH 6.8 buffer, and water) was conducted with a feed concentration of 10 mg/mL by shaking (400 rpm) at 37 °C. At each time point, a sample was taken, centrifuged (10000 rpm, 2 min), and filtered (through a 0.22 µm PTFE filter membrane, with the initial filtrate discarded). The HPLC concentration of the filtrate was then determined, and the remaining solid was subjected to XRD analysis. Table 30. Summary of dynamic solubility test results for crystal form G

Cn1cc2cc(-c3nn4ccc(C5CC5)nc4c(-c4ccc(OC(F)F)cc4)c3=O)ccc2n1 [Crystal form G, 2-cyclopropyl-9-[4-(difluoromethoxy)phenyl]-7-(2-methyl-2H-indazol-5-yl)-8H-pyrimido[1,2-b]pyridazin-8-one]
After heating (crystal form) [1]: Crystal form A
solubility ([2]; organic solvent or mixture, 1,4-Dioxane, room temperature): 4800 to 6300 µg/mL (≈ 10400 to 13700 µM)
solubility ([2]; organic solvent or mixture, ACN, room temperature): ~1100 µg/mL (≈ 2390 µM)
solubility ([2]; organic solvent or mixture, ACN/H2O (10:1), room temperature): < 1100 µg/mL
solubility ([2]; organic solvent or mixture, Acetone, room temperature): ~1000 µg/mL (≈ 2180 µM)
solubility ([2]; organic solvent or mixture, CHCl3, room temperature): > 10500 µg/mL
solubility ([2]; organic solvent or mixture, DCM, room temperature): 1900 to 2300 µg/mL (≈ 4140 to 5010 µM)
solubility ([2]; organic solvent or mixture, DMAc, room temperature): > 40000 µg/mL
solubility ([2]; organic solvent or mixture, DMF, room temperature): 21000 to 42000 µg/mL (≈ 45700 to 91400 µM)
solubility ([2]; organic solvent or mixture, DMSO, room temperature): 9500 to 19000 µg/mL (≈ 20700 to 41400 µM)
solubility ([2]; organic solvent or mixture, EtOAc, room temperature): 1100 to 2200 µg/mL (≈ 2390 to 4790 µM)
solubility ([2]; organic solvent or mixture, EtOH, room temperature): ~1200 µg/mL (≈ 2610 µM)
solubility ([2]; organic solvent or mixture, IPA, room temperature): ~1000 µg/mL (≈ 2180 µM)
solubility ([2]; organic solvent or mixture, IPAc, room temperature): ~1100 µg/mL (≈ 2390 µM)
solubility ([2]; organic solvent or mixture, MEK, room temperature): 5300 to 10500 µg/mL (≈ 11500 to 22900 µM)
solubility ([2]; organic solvent or mixture, MIBK, room temperature): 2000 to 2500 µg/mL (≈ 4350 to 5440 µM)
solubility ([2]; organic solvent or mixture, MTBE, room temperature): < 1100 µg/mL
solubility ([2]; organic solvent or mixture, MeOH, room temperature): 3710 to 5500 µg/mL (≈ 8070 to 12000 µM)
solubility ([2]; organic solvent or mixture, MeOH/DCM (1:1), room temperature): 5000 to 10000 µg/mL (≈ 10900 to 21800 µM)
solubility ([2]; organic solvent or mixture, THF, room temperature): 7000 to 10500 µg/mL (≈ 15200 to 22900 µM)
solubility ([2]; water, H2O, room temperature): < 1100 µg/mL
Crystal form change ([3]; H2O, 1 h): Yes
Crystal form change ([3]; H2O, 4 h): Yes
Crystal form change ([3]; H2O, 24 h): Yes
Crystal form change ([3]; pH 1.0, 1 h): Yes
Crystal form change ([3]; pH 1.0, 4 h): Yes
Crystal form change ([3]; pH 1.0, 24 h): Yes
solubility at 1 h ([3]; pH 1.0 buffer, simulated gastric fluid, pH 1.0, 1 h): 0.32 µg/mL (≈ 0.696 µM)
solubility at 4 h ([3]; pH 1.0 buffer, simulated gastric fluid, pH 1.0, 4 h): 0.16 µg/mL (≈ 0.348 µM)
solubility at 24 h ([3]; pH 1.0 buffer, simulated gastric fluid, pH 1.0, 24 h): 0.12 µg/mL (≈ 0.261 µM)
Crystal form change ([3]; pH 4.5, 1 h): Yes
Crystal form change ([3]; pH 4.5, 4 h): Yes
Crystal form change ([3]; pH 4.5, 24 h): Yes
solubility at 4 h ([3]; pH 4.5 buffer, aqueous buffer, pH 4.5, 4 h): 0.07 µg/mL (≈ 0.152 µM)
solubility at 24 h ([3]; pH 4.5 buffer, aqueous buffer, pH 4.5, 24 h): 0.08 µg/mL (≈ 0.174 µM)
Crystal form change ([3]; pH 6.8, 1 h): Yes
Crystal form change ([3]; pH 6.8, 4 h): Yes
Crystal form change ([3]; pH 6.8, 24 h): Yes
solubility at 24 h ([3]; pH 6.8 buffer, aqueous buffer, pH 6.8, 24 h): 0.06 µg/mL (≈ 0.131 µM)
solubility at 1 h ([3]; water, H2O, 1 h): 0.13 µg/mL (≈ 0.283 µM)
solubility at 4 h ([3]; water, H2O, 4 h): 0.09 µg/mL (≈ 0.196 µM)
